# Values of other authors as cited in patent US20200399681A1, “ASSAY FOR DETECTION OF ANDROGEN RECEPTOR VARIANTS” (Cornell University, priority 2018, published 2020).
# Like-named read-outs stand apart in the source and are kept apart here.
# Experiments:
# prostate cancer patients [1] = tested on: prostate cancer patients
# prostate cancer patients [2] = tested on: prostate cancer patients; remark: listed apart in the source
smiles,measurement,setting,value
"CNC(=O)c1ccc(N2C(=S)N(c3ccc(C#N)c(C(F)(F)F)c3)C(=O)C2(C)C)cc1F [enza, enzalutamide]","adjusted HR for AR-V7 (TTF, multivariable analysis)","prostate cancer patients [1]; high AR-V7 expression, adjusted for covariates",cohort (adjusted HR = 2.02
same,median OS,prostate cancer patients [1]; pts with high AR-V7 expression (the shorter OS),13.8 months
same,"time to treatment failure (TTF), median","prostate cancer patients [1]; pts with high AR-V7 expression (top tertile, >19 copies/mg RNA)",P = 0.046) and median 3.6 months
same,median OS,prostate cancer patients [1]; pts without high AR-V7 expression,29.1 months
same,"PSA progression-free survival, median",prostate cancer patients [2]; AR-V7- (negative) pts,6.0 months; P < 0.001) &
same,"overall survival (OS), median",prostate cancer patients [2]; AR-V7- (negative) pts,not reached
same,"overall survival (OS), median",prostate cancer patients [2]; AR-V7-positive pts,5.5 months
same,"PSA response rates, AR-V7-positive pts compared with AR-V7- pts",prostate cancer patients [2]; AR-V7-positive vs AR-V7- pts,positive pts had lower PSA
